Values quoted from earlier work in patent US10668130B2, “Formulation for targeting cancer in humans and canines using chlorotoxin” (priority 2017, dated 2020).

Key:
CFTR Cl— channels = CFTR Cl— channels (Homo sapiens, UniProt P13569); settings: sub-micromolar concentrations
[1] = tested on: outwardly rectifying Cl— channels; settings: planar lipid bilayers
[2] = tested on: Ca2+-activated Cl— channels; settings: sub-micromolar concentrations
[3] = tested on: volume-regulated Cl— channels; settings: sub-micromolar concentrations

Sequence of CFTR Cl— channels (P13569 whole entry): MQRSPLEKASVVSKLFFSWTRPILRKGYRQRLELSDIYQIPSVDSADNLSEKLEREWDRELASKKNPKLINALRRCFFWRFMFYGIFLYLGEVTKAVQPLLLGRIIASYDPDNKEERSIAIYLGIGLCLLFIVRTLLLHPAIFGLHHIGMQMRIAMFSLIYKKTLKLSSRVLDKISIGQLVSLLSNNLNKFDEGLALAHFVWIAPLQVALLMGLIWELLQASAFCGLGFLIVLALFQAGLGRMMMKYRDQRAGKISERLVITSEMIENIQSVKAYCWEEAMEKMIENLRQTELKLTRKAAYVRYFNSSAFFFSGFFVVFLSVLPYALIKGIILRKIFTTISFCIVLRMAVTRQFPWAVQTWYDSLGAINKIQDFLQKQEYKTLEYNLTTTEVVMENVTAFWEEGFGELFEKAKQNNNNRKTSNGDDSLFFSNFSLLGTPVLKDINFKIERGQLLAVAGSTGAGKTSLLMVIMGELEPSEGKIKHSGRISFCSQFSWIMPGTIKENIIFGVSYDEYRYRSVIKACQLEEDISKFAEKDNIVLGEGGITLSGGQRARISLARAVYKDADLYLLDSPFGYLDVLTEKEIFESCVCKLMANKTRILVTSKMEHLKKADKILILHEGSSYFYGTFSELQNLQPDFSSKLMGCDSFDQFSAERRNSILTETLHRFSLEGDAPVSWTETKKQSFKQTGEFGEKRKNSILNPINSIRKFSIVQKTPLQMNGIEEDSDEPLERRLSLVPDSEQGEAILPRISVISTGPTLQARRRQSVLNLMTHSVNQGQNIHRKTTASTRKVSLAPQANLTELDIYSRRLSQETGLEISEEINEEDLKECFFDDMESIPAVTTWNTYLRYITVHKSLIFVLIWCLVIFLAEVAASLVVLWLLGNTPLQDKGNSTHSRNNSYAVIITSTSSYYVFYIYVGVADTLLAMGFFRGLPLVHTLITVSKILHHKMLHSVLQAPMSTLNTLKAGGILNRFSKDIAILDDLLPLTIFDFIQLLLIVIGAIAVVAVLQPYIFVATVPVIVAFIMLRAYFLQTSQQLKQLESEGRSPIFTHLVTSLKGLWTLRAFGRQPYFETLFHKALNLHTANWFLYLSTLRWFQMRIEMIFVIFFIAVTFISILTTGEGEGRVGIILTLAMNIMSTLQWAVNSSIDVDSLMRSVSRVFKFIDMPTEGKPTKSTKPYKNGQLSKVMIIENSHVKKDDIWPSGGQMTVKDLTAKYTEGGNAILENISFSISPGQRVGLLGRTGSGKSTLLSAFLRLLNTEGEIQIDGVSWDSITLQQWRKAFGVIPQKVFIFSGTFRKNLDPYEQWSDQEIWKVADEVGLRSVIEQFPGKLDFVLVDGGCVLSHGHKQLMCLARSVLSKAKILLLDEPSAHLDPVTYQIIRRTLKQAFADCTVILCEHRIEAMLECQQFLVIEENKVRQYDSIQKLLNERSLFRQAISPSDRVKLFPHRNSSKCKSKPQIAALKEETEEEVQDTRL

Substance: chlorotoxin
- effect on CFTR Cl— channels (CFTR Cl— channels): without effect
- effect on outwardly rectifying Cl— channels [1]: inhibited
- effect on Ca2+-activated Cl— channels [2]: without effect
- effect on volume-regulated Cl— channels [3]: without effect
